In patent US20040191287A1, “Fumigation process for stored food grains” (priority 2003, published 2004):

How the values were obtained:
Rhyzopertha dominica = assay: whole plant or invertebrate; settings: Rhyzopertha dominica, read-out: Mortality (%) (Mean ± SD)
Description: (§1) Cryptolestes sp. was reared on wheat feed. S. oryzae, Cryptolestes sp. and T. castaneum cultures were maintained at 25±1° C. and 70% RH whereas R. dominica cultures were maintained at 30±1° C. and 70% RH. From the established cultures, 2-week-old adults were taken and counted into 10 cm×2.3 cm size test tubes at 50 per replicate. The mouth of the tube was closed with a cloth piece held by small rubber ring. The insects were exposed to a range of doses (10 to 100 mg/litre) of esters for 24 hours in 0.85-liter desicators at the laboratory temperature of 26±2° C. Pure grade esters including allyl acetate, butyl acetate, ethyl acetoacetate, isopropyl acetate and propyl acetate were procured from Merck India Ltd. In each desiccator a 9 cm diameter Whatman No. 1 filter circle was placed; the filter circle acted as evaporating surface for the injected liquids (esters). Required quantity of the ester was drawn from the bottles using 10, 25 or 50 micro litre liquid syringe. There were 6 replicates for each dose with equal number of replicates for untreated control. The exposure period in all cases was 24 hours. […] Insect mortality was assessed after 14 days. Corrected mortality was arrived at based on Abbott's formula (1925).

Tribolium castaneum = assay: whole plant or invertebrate; settings: Tribolium castaneum, read-out: Mortality (%) (Mean ± SD)
Description: as §1

Sitophilus oryzae = assay: whole plant or invertebrate; settings: Sitophilus oryzae, read-out: Mortality (%) (Mean ± SD)
Description: as §1

human beings = settings: cited from earlier work
[1] = cited from earlier work

| SMILES | mortality at 10 µg/mL (Rhyzopertha dominica) [%] | mortality at 20 µg/mL (Rhyzopertha dominica) [%] | mortality at 30 µg/mL (Rhyzopertha dominica) [%] | mortality at 50 µg/mL (Rhyzopertha dominica) [%] | mortality at 100 µg/mL (Rhyzopertha dominica) [%] | mortality at 10 µg/mL (Tribolium castaneum) [%] | mortality at 20 µg/mL (Tribolium castaneum) [%] | mortality at 30 µg/mL (Tribolium castaneum) [%] | mortality at 50 µg/mL (Tribolium castaneum) [%] | mortality at 100 µg/mL (Tribolium castaneum) [%] | mortality at 10 µg/mL (Sitophilus oryzae) [%] | mortality at 20 µg/mL (Sitophilus oryzae) [%] | mortality at 30 µg/mL (Sitophilus oryzae) [%] | mortality at 50 µg/mL (Sitophilus oryzae) [%] | mortality at 100 µg/mL (Sitophilus oryzae) [%] | toxicity to human beings (human beings) | Solubility in water [1] | vapour pressure ([1]; at 25° C.) |
| --- | --- | --- | --- | --- | --- | --- | --- | --- | --- | --- | --- | --- | --- | --- | --- | --- | --- | --- |
| CCCCOC(C)=O [Butyl acetate, butyl acetate] | 1.6 ± 3.5 | 0 | 0.2 ± 0.7 | 20.9 ± 26.8 | 100 | 2 ± 2.6 | 2.1 ± 1.1 | 0.6 ± 1.1 | 13.9 ± 0.8 | 96.2 ± 0.8 | 8.3 ± 12.3 | 1.7 ± 2.4 | 3.2 ± 4.5 | 67.3 ± 7.7 | 100 | – | – | – |
| CCOC(=O)CC(C)=O [Ethyl acetoacetate, ethyl acetoacetate] | 0 | 0 | 5.7 ± 10.4 | 8.6 ± 17.1 | 0.4 ± 0.9 | 0.6 ± 2.6 | 0.8 ± 1.1 | 0.3 ± 1.1 | 0.7 ± 0.8 | 1.3 ± 0.8 | 3.1 ± 6.9 | 4.7 ± 7.1 | 5.1 ± 5.7 | 6.5 ± 5.5 | 15.8 ± 14 | – | – | – |
| CC(=O)OC(C)C [Isopropyl acetate, isopropyl acetate] | 4.4 ± 6.9 | 8.9 ± 10.7 | 6.1 ± 6.7 | 39.2 ± 8.2 | 100 | 0.3 ± 0.6 | 1.3 ± 1.7 | 32.7 ± 44.1 | 66.5 ± 27.7 | 100 | 5.5 ± 6.9 | 2.3 ± 5.6 | 3.7 ± 7.56 | 47.1 ± 31.2 | 100 | – | – | – |
| CCCOC(C)=O [Propyl acetate, propyl acetate] | 2 ± 4 | 7.3 ± 10 | 5.3 ± 10.6 | 65.4 ± 40 | 100 | 0.9 | 0.9 | 12.6 ± 21.2 | 83.2 ± 26.3 | 100 | 2.4 ± 3.8 | 0.5 ± 1.3 | 14.2 ± 8.1 | 74.3 ± 20.2 | 100 | – | – | – |
| N#CC#N [cyanogen, reference compound] | – | – | – | – | – | – | – | – | – | – | – | – | – | – | – | highly toxic | highly water-soluble | – |
| O=S(=O)(F)F [sulfuryl fluoride, reference compound] | – | – | – | – | – | – | – | – | – | – | – | – | – | – | – | – | – | 13,442 mm of Hg |
